Test results as given in article PMC6985936, “2-Amino-2,3-dihydro-1H-indene-5-carboxamide-Based Discoidin Domain Receptor 1 (DDR1) Inhibitors: Design, Synthesis, and in Vivo Antipancreatic Cancer Efficacy” (Journal of Medicinal Chemistry, 2019).
Where two headings read alike, the source gives them in different places.

Tests used:
[1] = SD rats
Method: (§1) All animal studies were performed according to the protocols and guidelines of the institutional care and use committee. The 4–6 week old male Sprague-Dawley rats were purchased from the Shanghai Laboratory Animal Research Center (Shanghai, China). All of the procedures related to animal handling, care, and treatment in this article were performed in compliance with Agreement of the Ethics Committee on Laboratory Animal Care and the Guidelines for the Care and Use of Laboratory Animals in Shanghai, China. […] The compound was dissolved in the solution containing 2% DMSO, 4% ethanol, 4% castor oil, and 90% ddH2O. Pharmacokinetic properties of SD rats (male) were determined following intravenous (iv) and oral administration. Animals were randomly distributed into two experimental groups (n = 3). The oral groups were given 25 mg/kg by gastric gavage. The other group was dosed by injection into the tail vein (5 mg/kg). […] Whole blood samples were collected in heparinized tubes. The plasma fraction was immediately separated by centrifugation (8000 rpm, 6 min, 4 °C) and stored at −20 °C until liquid chromatography–mass spectrometry analysis. […] The pharmacokinetics parameters were calculated by analyzing the compound concentration in plasma samples using the pharmacokinetic software DAS.2.0.

in vivo = conditions: male, Sprague-Dawley, rat, plasma, po, 25 mg/kg
Method: as §1

Cc1cn(-c2cc(NC(=O)c3ccc4c(c3)C[C@H](N(C)c3cncnc3)C4)cc(C(F)(F)F)c2)cn1 [7f, (R)-2-(Methyl(pyrimidin-5-yl)amino)-N-(3-(4-methyl-1H-imidazol-1-yl)-5-(trifluoromethyl)phenyl)-2,3-dihydro-1H-indene-5-carboxamide]
T1/2 ([1]; iv 5 mg/kg): 0.9 h | Tmax ([1]; iv 5 mg/kg): 0.083 h | T1/2 ([1]; po 25 mg/kg): 1.7 h | Tmax ([1]; po 25 mg/kg): 4.0 h | AUC(0–∞) ([1]; po 25 mg/kg, 25 mg/kg): 80 535 μg/(L h) | bioavailability (in vivo): 89.9%
